Experimental data: patent US11793755B2, “Pharmaceutical composition for intraarticular delivery” (TAIWAN LIPOSOME CO., LTD., priority 2012, dated 2023)
Like-named read-outs stand apart in the source and are kept apart here.

Assays:
[1] = tested on: arthritis induced with bovine type II collagen; assay: Single IA injection of DSP sustained release compositions in arthritic rats (Example 3); format: in vivo, Lewis rats
Experimental: Sixteen female rats, aged 8 weeks, were used in the study. The average body weight of the rats was from about 180 to about 200 grams.
To induce arthritis, each rat was immunized with 200 μg of bovine type II collagen (4 mg/ml stocked in 10 mM acetic acid, commercially available from Elastin Products, Owensville, USA) emulsified in Freund's incomplete adjuvant (commercially available from Sigma Chemical Co., USA) on day 0 and then again on day 7.
The rats were randomized into the following 4 study groups:
Group 1: 4 rats each received 100 μl of saline per paw (labeled “Saline Control in FIGS. 1-8)
Group 3: 4 rats each received 100 μl of the sustained release composition 1 per paw, wherein the concentration of DSP is 1 mg/ml (labeled “TLC399_1 mg/mg in FIGS. 1-4 and “TLC399_I 4 mg/ml in FIGS. 5-8).
Group 4: 4 rats each received 100 μl of the sustained release composition 2 per paw, wherein the concentration of DSP is 1.4 mg/ml (labeled “TLC399_1.4 mg/mg in FIGS. 1-4 and “TLC399_II 1.4 mg/ml in FIGS. 5-8).
The control or the DSP formulation was administered to both hind paws of the rat as a once only IA injection on day 19.

[2] = tested on: arthritis induced with bovine type II collagen; assay: Four daily IA injections of DSP sustained release compositions in arthritic rats (Example 4); format: in vivo, Lewis rats; details: four daily IA injections day 26 to day 29
Description: (§1) During the 14-day study period, the rats were examined 3 times a week for the following outcomes: • Body weight loss, which is one of the parameters for evaluating the severity of arthritis. • Clinical Visual Arthritis Score, which is a visual score which correlates with the severity of arthritis. It was graded using an articular index of each paw, ranging from 0 to 4 (0=no edema or erythema on the foot pad; 1=slight edema and erythema on the foot pad; 2=mild edema and erythema on the foot pad; 3=moderate edema and erythema on the entire foot pad and the ankle; 4=severe edema and joint rigidity of the ankle, foot and digits). The Clinical Visual Arthritis Score for each rat was the sum of the articular index of both hind paws, with a maximum score of 8. • Hind paw volume and swelling. The hind paw volume was measured by UGO Plethysmometer 7149 measuring system. The final volume data was normalized with the average body weight (ml/kg) and edema was defined as the increase in paw volume on the day of measurement relative to day 0.

[3] = tested on: collagen-induced arthritis; assay: Collagen-induced arthritis model, etanercept sustained release composition (Example 8); format: in vivo, Lewis rats
[4] = tested on: collagen-induced arthritis; assay: Collagen-induced arthritis model, indomethacin sustained release composition (Example 6); format: in vivo, Lewis rats
Description: as §1
An in vivo evaluation of the effect of the indomethacin sustained release composition on arthritis was performed using 18 female Lewis rats (BioLASCO Taiwan Co, Ltd., Taiwan).
The arthritis treatments were initiated at the peak of the clinical visual arthritis score, which occurred at day 19. Eighteen rats were randomly divided into three groups (6 rats in each group): (1) control group (without any treatment, labeled “Control” in FIG. 9); (2) free indomethacin group (2 mg/kg indomethacin per dose, labeled “Indomethacin (2 mg/kg) in FIG. 9); and (3) indomethacin sustained release composition group (2 mg/kg indomethacin per dose; labeled “Indomethacin-BioSeizer (2 mg/kg) in FIG. 9). The rats in each group were given no treatment (control group), daily subcutaneous injection around the arthritis joints of free indomethacin or indomethacin sustained release composition, from day 19 to day 23.

[5] = tested on: collagen-induced arthritis
Description: as §1

[6] = day 30, doses on day 23 and day 26

## dexamethasone sodium phosphate [free DSP]
[1]; day 23, volume normalized with body weight
  paw swelling thickness, both paws: around 7.5 ml/kg
[1]; day 26, single IA injection on day 19
  clinical visual arthritis score: 4.5
[1]; prior to the IA injection (day 19), sum of both hind paws, maximum 8
  clinical visual arthritis score, average: 4.0
[1]; single IA injection on day 19
  day on which both paws became swollen again: 23 days
[2]; day 30
  clinical visual arthritis score, lowest recorded: 3
[2]
  day on which paws were swollen again / first sign of paw swelling: 31 days
  day on which relapsed arthritis signs became severe: 33 days

## etanercept [free etanercept]
[3]; day 26, 50 mg/kg etanercept per dose on day 23 and day 26
  average arthritis score: 2.4
[3]; [6]
  arthritis score: 4
[3]; doses on day 23 and day 26
  time after termination of treatment until arthritis relapsed / amelioration continued: 3 days

## COc1ccc2c(c1)c(CC(=O)O)c(C)n2C(=O)c1ccc(Cl)cc1 [free indomethacin, Indomethacin sodium]
[4]; before the first dose on day 19
  average arthritis score before treatment: 7.4
[4]; day 20, 2 mg/kg indomethacin per dose, daily from day 19 to day 23
  average arthritis score: 5
[4]; day 25, after termination of treatment on day 23
  arthritis score: 8
[4]; treatment day 19 to day 23
  time after termination of treatment until arthritis signs returned / amelioration continued: 2 days

## CN(Cc1cnc2nc(N)nc(N)c2n1)c1ccc(C(=O)N[C@@H](CCC(=O)[O-])C(=O)[O-])cc1.[Na+].[Na+] [free methotrexate, methotrexate sodium]
[5]; before the first dose on day 23
  average arthritis score before treatment: 3.7
[5]; day 26, 1 mg/kg methotrexate per dose on day 23 and day 26
  average arthritis score: 1.4
[5]; [6]
  arthritis score: 3.5
[5]; doses on day 23 and day 26
  time after termination of treatment until arthritis signs returned / amelioration continued: 4 days
